Measurements reported in article PMC8901119 (Chemical Science, 2021).
Where two headings read alike, the source gives them in different places. Each block holds one compound with its values, some of them ahead of it. Starred links: 1 amine or outer side, 2 acyl side, 3 side chain; linkers in the order of their positions; H or OH if unused. Non-standard residues stand in square brackets, D forms with d. Residues, ends and D or L forms follow the SMILES beside them. Ala(7-MeO-coumarin-4-yl) = COc1ccc2c(C[C@H](N)C(=O)O)cc(=O)oc2c1; X1 = C[C@H](NC(=S)[C@H](CCCNC(=N)N)N[*:1])C(=O)[*:2]; X2 = C[C@H](NC(=S)[C@H](CCCCN)N[*:1])C(=O)[*:2]

Columns and labels:
Cts L = Cts L (Homo sapiens, UniProt P07711); test: Cathepsin L inhibition assay with Z-FR-AMC
[1] = Stability of peptides in HepG2 whole cell lysate; type: in vitro ADME; conditions: human
Description: Stability of Peptides in HepG2 Whole Cell Lysate
Using the same conditions as the previous Cts L Activity Assay in HepG2 Whole Cell Lysate, 50 μL peptide (either R1A or RS1A; final concentration 20 μM) was incubated in 50 μL HepG2 whole cell lysate (to a final concentration of 0.05 mg/mL) in the assay buffer for different time points.
The all-amide peptide, R 1A, was incubated for t = 0, 5, 10, 15, 20, and 30 minutes. The thioamide peptide, RS1A, was incubated for t = 0, 2, 6, 8, 10, and 24 hours. After incubation for the desired amount of time, 100 μL methanol was added to the mixture and incubated at -20 °C for 10 minutes before spinning down at 13,000 rpm for 10 minutes. Then, 180 μL of each mixture was further diluted with 220 μL Milli-Q water to a total volume of 400 μL before adding 1 μL 0.42 mM coumarin internal standard for HPLC analysis. The coumarin internal standard was used to normalize the amount of intact peptide in each sample. A Phenomenex Luna® Omega 5 µm PS C18 100 Å analytical column was used to analyze all samples using the same gradient of 20-40 % B over 20 minutes (Solvent A: 0.1% TFA in Milli-Q water; Solvent B: 0.1% TFA in acetonitrile).
Representative HPLC spectra (325 nm) at different time points were also shown to confirm the stability of the peptides in HepG2 whole cell lysate (Figure S26 A & B). MALDI MS was used to confirm the mass from each fraction from the HPLC from experiment with the all-amide peptide (R 1A – expected [M+H]+ = 1133.51 m/z) and the thioamide peptide ( RS1A – expected [M+H]+ = 1149.48 m/z). To calculate the percent intact peptide for each sample, the average ratio of intact peptide to internal standard was compared to that ratio at t = 0. For each time point, the experiment

cathepsin L (Cts L) [2] = conditions: human, 27 °C, up to 2-hour
cathepsin S (Cts S) = conditions: 27 °C, up to 100 min
cathepsin B (Cts B) = conditions: human, 27 °C, up to 100 min
cathepsin L (Cts L) [3] = conditions: human, 27 °C, up to 100 min
cathepsin K (Cts K) = conditions: 27 °C, up to 100 min
cathepsin V (Cts V) = conditions: 27 °C, up to 100 min
[4] = Cts L, mixed inhibition model fit, Z-FR-AMC, pH 5.5, 27 °C

Sequence of Cts L (P07711 114-333): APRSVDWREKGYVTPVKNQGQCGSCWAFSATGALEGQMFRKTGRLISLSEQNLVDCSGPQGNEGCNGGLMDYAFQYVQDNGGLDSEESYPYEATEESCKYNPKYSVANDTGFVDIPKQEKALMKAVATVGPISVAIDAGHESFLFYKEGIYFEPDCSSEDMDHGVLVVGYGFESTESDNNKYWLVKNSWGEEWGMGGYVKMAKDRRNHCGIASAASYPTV

Ki (Cts L; [4]): 3050 ± 640 nM
Compound: COc1ccc2c(C[C@H](NC(=O)[C@H](C)NC(=O)[C@H](C)NC(=O)[C@H](C)NC(=O)[C@H](CCCCN)NC(=O)[C@H](Cc3ccccc3)NC(=O)[C@H](CC(C)C)NC(=O)[C@H](Cc3c[nH]cn3)NC(=O)[C@@H](N)Cc3cc(=O)oc4cc(OC)ccc34)C(=O)O)cc(=O)oc2c1 [K3A, μHLFKAAAμ] (H-[Ala(7-MeO-coumarin-4-yl)]HLFKAAA[Ala(7-MeO-coumarin-4-yl)]-OH)

Ki (Cts L; [4]): 600 ± 150 nM
Compound: COc1ccc2c(C[C@H](NC(=O)[C@H](C)NC(=O)[C@H](C)NC(=O)[C@H](C)NC(=S)[C@H](CCCCN)NC(=O)[C@H](Cc3ccccc3)NC(=O)[C@H](CC(C)C)NC(=O)[C@H](Cc3c[nH]cn3)NC(=O)[C@@H](N)Cc3cc(=O)oc4cc(OC)ccc34)C(=O)O)cc(=O)oc2c1 [K^S3A, μHLFK^SAAAμ] (H-[Ala(7-MeO-coumarin-4-yl)]HLF[X2]AA[Ala(7-MeO-coumarin-4-yl)]-OH)

Ki (Cts L; Cts L (preliminary data), phosphate buffer pH 6.0, 27 °C, preliminary): 870 nM
Compound: COc1ccc2c(C[C@H](NC(=O)[C@H](C)NC(=O)[C@H](C)NC(=O)[C@H](C)NC(=S)[C@H](CCCCN)NC(=O)[C@H](CC(C)C)NC(=O)[C@H](CC(C)C)NC(=O)[C@@H](N)Cc3cc(=O)oc4cc(OC)ccc34)C(=O)O)cc(=O)oc2c1 [K^SP1, μLLK^SAAAμ] (H-[Ala(7-MeO-coumarin-4-yl)]LL[X2]AA[Ala(7-MeO-coumarin-4-yl)]-OH; N-terminus and C-terminus assumed)

half-life at 20 μM ([1]; 20 μM peptide, 0.05 mg/mL lysate, HPLC): 7.2 min
remaining at 5 min, 20 μM ([1]; HepG2 lysate, 5 mins, read-out: % intact peptide): 46%
remaining at 10 min, 20 μM ([1]; HepG2 lysate, 10 mins, read-out: % intact peptide): 36%
remaining at 0.25 h, 20 μM ([1]; HepG2 lysate, 15 mins, read-out: % intact peptide): 32.8%
remaining at 20 min, 20 μM ([1]; HepG2 lysate, 20 mins, read-out: % intact peptide): 21.7%
remaining at 0.5 h, 20 μM ([1]; HepG2 lysate, 30 mins, read-out: % intact peptide): 6.92%
Compound: COc1ccc2c(C[C@H](NC(=O)[C@H](C)NC(=O)[C@H](CCCNC(=N)N)NC(=O)[C@H](Cc3ccccc3)NC(=O)[C@H](CC(C)C)NC(=O)[C@H](Cc3c[nH]cn3)NC(=O)[C@@H](N)Cc3cc(=O)oc4cc(OC)ccc34)C(=O)O)cc(=O)oc2c1 [R1A, μHLFRAμ] (H-[Ala(7-MeO-coumarin-4-yl)]HLFRA[Ala(7-MeO-coumarin-4-yl)]-OH)

Ki (Cts L; [4]): 1680 ± 490 nM
Compound: COc1ccc2c(C[C@H](NC(=O)[C@H](C)NC(=O)[C@H](C)NC(=O)[C@H](C)NC(=O)[C@H](CCCNC(=N)N)NC(=O)[C@H](Cc3ccccc3)NC(=O)[C@H](CC(C)C)NC(=O)[C@H](Cc3c[nH]cn3)NC(=O)[C@@H](N)Cc3cc(=O)oc4cc(OC)ccc34)C(=O)O)cc(=O)oc2c1 [R3A, μHLFRAAAμ] (H-[Ala(7-MeO-coumarin-4-yl)]HLFRAAA[Ala(7-MeO-coumarin-4-yl)]-OH)

remaining at 2 h, 20 μM ([1]; HepG2 lysate, 2 hours, read-out: % intact peptide): 86.3%
remaining at 6 h, 20 μM ([1]; HepG2 lysate, 6 hours, read-out: % intact peptide): 75.7%
remaining at 8 h, 20 μM ([1]; HepG2 lysate, 8 hours, read-out: % intact peptide): 80.7%
remaining at 10 h, 20 μM ([1]; HepG2 lysate, 10 hours, read-out: % intact peptide): 79.9%
remaining at 24 h, 20 μM ([1]; HepG2 lysate, 24 hours, read-out: % intact peptide): 61.3%
Compound: COc1ccc2c(C[C@H](NC(=O)[C@H](C)NC(=S)[C@H](CCCNC(=N)N)NC(=O)[C@H](Cc3ccccc3)NC(=O)[C@H](CC(C)C)NC(=O)[C@H](Cc3c[nH]cn3)NC(=O)[C@@H](N)Cc3cc(=O)oc4cc(OC)ccc34)C(=O)O)cc(=O)oc2c1 [R^S1A, μHLFR^SAμ] (H-[Ala(7-MeO-coumarin-4-yl)]HLF[X1][Ala(7-MeO-coumarin-4-yl)]-OH)

Ki (Cts L; [4]): 520 ± 120 nM
Compound: COc1ccc2c(C[C@H](NC(=O)[C@H](C)NC(=O)[C@H](C)NC(=O)[C@H](C)NC(=S)[C@H](CCCNC(=N)N)NC(=O)[C@H](Cc3ccccc3)NC(=O)[C@H](CC(C)C)NC(=O)[C@H](Cc3c[nH]cn3)NC(=O)[C@@H](N)Cc3cc(=O)oc4cc(OC)ccc34)C(=O)O)cc(=O)oc2c1 [R^S3A, μHLFR^SAAAμ] (H-[Ala(7-MeO-coumarin-4-yl)]HLF[X1]AA[Ala(7-MeO-coumarin-4-yl)]-OH)

not cleaved (cathepsin L (Cts L) [2]): remained intact after the 2-hour assay
Compound: HLFR^SA

cleaved bond (cathepsin S (Cts S)): K-A
cleaved bond (cathepsin B (Cts B)): K-A
Compound: μHLFKAAAμ (H-[Ala(7-MeO-coumarin-4-yl)]HLFKAAA[Ala(7-MeO-coumarin-4-yl)]-OH; SMILES COc1ccc2c(C[C@H](NC(=O)[C@H](C)NC(=O)[C@H](C)NC(=O)[C@H](C)NC(=O)[C@H](CCCCN)NC(=O)[C@H](Cc3ccccc3)NC(=O)[C@H](CC(C)C)NC(=O)[C@H](Cc3c[nH]cn3)NC(=O)[C@@H](N)Cc3cc(=O)oc4cc(OC)ccc34)C(=O)O)cc(=O)oc2c1)

not cleaved (cathepsin S (Cts S)): No cleavage
cleaved bond (cathepsin L (Cts L) [3]): A-A
not cleaved (cathepsin K (Cts K)): No cleavage
not cleaved (cathepsin V (Cts V)): No cleavage
cleaved bond (cathepsin B (Cts B)): A-A
Compound: μHLFK^SAAAμ (H-[Ala(7-MeO-coumarin-4-yl)]HLF[X2]AA[Ala(7-MeO-coumarin-4-yl)]-OH; SMILES COc1ccc2c(C[C@H](NC(=O)[C@H](C)NC(=O)[C@H](C)NC(=O)[C@H](C)NC(=S)[C@H](CCCCN)NC(=O)[C@H](Cc3ccccc3)NC(=O)[C@H](CC(C)C)NC(=O)[C@H](Cc3c[nH]cn3)NC(=O)[C@@H](N)Cc3cc(=O)oc4cc(OC)ccc34)C(=O)O)cc(=O)oc2c1)

cleaved bond (cathepsin S (Cts S)): R-A
cleaved bond (cathepsin B (Cts B)): R-A
Compound: μHLFRAAAμ (H-[Ala(7-MeO-coumarin-4-yl)]HLFRAAA[Ala(7-MeO-coumarin-4-yl)]-OH; SMILES COc1ccc2c(C[C@H](NC(=O)[C@H](C)NC(=O)[C@H](C)NC(=O)[C@H](C)NC(=O)[C@H](CCCNC(=N)N)NC(=O)[C@H](Cc3ccccc3)NC(=O)[C@H](CC(C)C)NC(=O)[C@H](Cc3c[nH]cn3)NC(=O)[C@@H](N)Cc3cc(=O)oc4cc(OC)ccc34)C(=O)O)cc(=O)oc2c1)

not cleaved (cathepsin S (Cts S)): No cleavage
cleaved bond (cathepsin L (Cts L) [3]): A-A
not cleaved (cathepsin K (Cts K)): No cleavage
not cleaved (cathepsin V (Cts V)): No cleavage
cleaved bond (cathepsin B (Cts B)): A-A
Compound: μHLFR^SAAAμ (H-[Ala(7-MeO-coumarin-4-yl)]HLF[X1]AA[Ala(7-MeO-coumarin-4-yl)]-OH; SMILES COc1ccc2c(C[C@H](NC(=O)[C@H](C)NC(=O)[C@H](C)NC(=O)[C@H](C)NC(=S)[C@H](CCCNC(=N)N)NC(=O)[C@H](Cc3ccccc3)NC(=O)[C@H](CC(C)C)NC(=O)[C@H](Cc3c[nH]cn3)NC(=O)[C@@H](N)Cc3cc(=O)oc4cc(OC)ccc34)C(=O)O)cc(=O)oc2c1)

not cleaved (cathepsin S (Cts S)): No cleavage
not cleaved (cathepsin L (Cts L) [3]): No cleavage
not cleaved (cathepsin K (Cts K)): No cleavage
not cleaved (cathepsin V (Cts V)): No cleavage
not cleaved (cathepsin B (Cts B)): No cleavage
Compound: μHLFR^SAμ
